Test results published in patent US20220313652A1, “USE OF COMPOUND OR PHARMACEUTICALLY ACCEPTABLE SALT, DIMER OR TRIMER THEREOF IN MANUFACTURE OF MEDICAMENT FOR TREATING CANCER” (priority 2020, published 2022).
Entries after “also recorded” stand apart in the source; their conditions may differ. Where two headings read alike, the source gives them in different places. Blank lines part the entries; values can stand above or below the compound they belong to.

Columns and labels:
[1] = test system: lung cancer A549 cells; assay: Tumor treatment experiment in A549 tumor cell-bearing nude mice
Protocol: After growing to the logarithmic phase, A549 cells were collected and resuspended in serum-free DMEM medium to 5×10^7 cells per ml. Each mouse was inoculated with 100 μl of 5×10^6 cells, and the tumor size was measured 19 days later. Mice were grouped according to the tumor size, and the average tumor size in each group was the same. Mice were administered after grouping.
The dose of Gefitinib was 100 mg per kilogram according to the reported dose for the treatment of A549 xenograft tumor in previous studies. The two drugs were administered by gavage, consistent with the current oral mode in clinical use. The dosing cycle was once every two days. The tumor size was measured every two days. After 40 days of administration, the test was ended, and the tumor was removed and weighed.

[2] = test system: liver cancer cell line HepG2; assay: MTT growth inhibition / IC50 on liver cancer cell line HepG2; format: cell-based
Protocol: After growing to 80% density, the cells were trypsinized, passaged and plated in a 96-well plate with 5000 cells per well. […] After 48 hours, the absorbance at each concentration was detected by the MTT method.

[3] = test system: liver cancer cell line HepG2; colorectal cancer cell line LoVo, HT29, SW620, SW480; assay: MTT growth inhibition, Apatinib alone vs Apatinib+Sotagliflozin on tumor cell lines; format: cell-based; settings: Apatinib 5-30 μM alone or with Sotagliflozin 20 μM, 48 hours
From the text: After obtaining the effectiveness of Gefitinib in Example 1, the present disclosure further validated another VEGFR-targeting TKI drug, Apatinib. According to the tissue distribution characteristics of VEGFR and SGLT1/2, the targets of Apatinib and Sotagliflozin, the followings cells were selected for experimental verification: liver cancer cell line HepG2; colorectal cancer cell line LoVo, HT29, SW620, SW480; cervical cancer HeLa; ovarian cancer SKOV3; gastric cancer HGC27; cholangiocarcinoma RBE; esophageal cancer KYSE3, and the like. After growing to 80% density, the cells were trypsinized, passaged and plated in a 96-well plate with 5000 cells per well. After 24 hours, the medium was replaced with a medium containing the corresponding concentration of Apatinib, Sotagliflozin, or the combination of Apatinib and Sotagliflozin. After 48 hours, the absorbance at each concentration was detected by the MTT method. The experiment included the following groups: Control group: cells were cultured in normal culture medium without drug added. […] The cell growth inhibition rate was calculated by dividing the absorbance value at each concentration by the absorbance value of the control group. […] In the figures, the concentration of Apatinib is taken as the abscissa and the cell growth inhibition rate is taken as the ordinate.

[4] = test system: cholangiocarcinoma RBE cells; assay: MTT inhibitory effect of Sotagliflozin on RBE cells; format: cell-based; settings: 48 hours
Protocol: (§1) Prostate cancer DU145 cells, breast cancer MCF-7 cells, esophageal cancer KYSE30 cells, gastric cancer HGC-27 cells, cholangiocarcinoma RBE cells, ovarian cancer SKOV3 cells, and cervical cancer Hela cells were used to verify the inhibitory effect of Sotagliflozin on tumor cells. After growing to 80% density, the cells were trypsinized, passaged and plated in a 96-well plate with 5000 cells per well. After 24 hours, the medium was replaced with a medium containing the corresponding concentration of drug. After 48 hours, the absorbance at each concentration was detected by the MTT method.
(§2) The experiment included the following groups:
(§3) Control group: cells were cultured in normal culture medium without drug added.
(§4) Sotagliflozin test group: cells were treated by adding Sotagliflozin at different concentration to each culture medium.
(§5) After incubation, the cell growth inhibition rate was calculated by dividing the absorbance value at each concentration by the absorbance value of the control group. In the figures, the concentration of Sotagliflozin is taken as the abscissa and the cell growth inhibition rate is taken as the ordinate.

[5] = test system: cervical cancer HeLa cells; assay: MTT inhibitory effect of Sotagliflozin on HeLa cells; format: cell-based; settings: 48 hours
Protocol: as §1, §2, §3, §4, §5

[6] = test system: esophageal cancer KYSE30 cells; assay: MTT inhibitory effect of Sotagliflozin on KYSE30 cells; format: cell-based; settings: 48 hours
Protocol: as §1, §2, §3, §4, §5

[7] = test system: lung cancer cell line A549; assay: MTT growth inhibition / IC50 on lung cancer cell line A549; format: cell-based
From the text: According to the tissue distribution characteristics of EGFR and SGLT1/2, the targets of Gefitinib and Sotagliflozin, the followings cells were selected for experimental verification: lung cancer cell line A549; colorectal cancer cell line LoVo, HT29, SW620, HCT116; cervical cancer HeLa; ovarian cancer SKOV3; gastric cancer HGC27; cholangiocarcinoma RBE; esophageal cancer KYSE30, and the like. After growing to 80% density, the cells were trypsinized, passaged and plated in a 96-well plate with 5000 cells per well. After 24 hours, the medium was replaced with a medium containing the corresponding concentration of drug. After 48 hours, the absorbance at each concentration was detected by the MTT method.
as §2
Sotagliflozin test group (FIG. 2-a-2): cells were treated by adding Sotagliflozin alone at 6 different concentrations, 0 μM, 10 μM, 30 μM, 40 μM, […] respectively, to the culture medium, and cell survival rate was measured after […] of incubation.

[8] = test system: ovarian cancer SKOV3 cells; assay: MTT inhibitory effect of Sotagliflozin on SKOV3 cells; format: cell-based; settings: 48 hours
Protocol: as §1, §2, §3, §4, §5

[9] = test system: prostate cancer DU145 cells; assay: MTT inhibitory effect of Sotagliflozin on DU145 cells; format: cell-based; settings: 48 hours
Protocol: as §1, §2, §3, §4, §5

[10] = test system: gastric cancer HGC-27 cells; assay: MTT inhibitory effect of Sotagliflozin on HGC-27 cells; format: cell-based; settings: 48 hours
Protocol: as §1, §2, §3, §4, §5

[11] = test system: normal human umbilical cord epithelial cells
[12] = test system: breast cancer MCF-7 cells; assay: MTT inhibitory effect of Sotagliflozin on MCF-7 cells; format: cell-based; settings: 48 hours
Protocol: as §1, §2, §3, §4, §5

[13] = test system: liver cancer HepG2 cells, colorectal cancer LoVo, HT29, DLD1, SW480, and HCT116 cells; assay: Growth inhibition, Lenvatinib alone vs Sotagliflozin combined with Lenvatinib; format: cell-based; settings: Sotagliflozin at a safe dose; variety of cell lines
From the text: Therefore, the effect of the combination in the safe concentration range of Sotagliflozin is better than the effect of each single agent. It is worth mentioning that the ability of Sotagliflozin in the combination to enhance the efficacy of VEGFR-targeting TKI drugs is not limited to a single drug of Apatinib.

[14] = A549 tumor-bearing nude mice, gavage once every two days, 40 days

Compound: COc1cc2ncnc(Nc3ccc(F)c(Cl)c3)c2cc1OCCCN1CCOCC1 [Gefitinib]
Average tumor volume ([1]; mouse, in vivo): 504.8
Tumor volume ratio of each group to the control group ([1]; mouse, in vivo): 0.4881

Compound: N#CC1(c2ccc(NC(=O)c3cccnc3NCc3ccncc3)cc2)CCCC1 [Apatinib]
IC50 ([2]; Homo sapiens, HepG2, Apatinib alone, cell survival rate after 2 h of incubation, read-out: IC50 value on HepG2 cells): 46 µM
inhibitory effect on tumor cells (cell growth inhibition rate) [3]: limited

IC50 [5]: 82.1 µM
IC50 [6]: 82.3 µM
IC50 ([7]; Sotagliflozin alone, lung cancer A549 cells, summary value, read-out: IC50): 71.6 µM
IC50 [8]: 84.5 µM
IC50 [9]: 40.8 µM
IC50 [10]: 48.5 µM
IC50 ([2]; Sotagliflozin alone, liver cancer HepG2 cells, summary value, read-out: IC50): 116 µM
IC50 [12]: 64.8 µM
Compound: Sotagliflozin
IC50 [4]: 182 µM
Tumor growth inhibition rate [1, 14]: 58.4
Tumor volume ratio of each group to the control group [1, 14]: 0.416
Average tumor volume ([1]; A549 tumor-bearing nude mice, gavage once every two days, 40 days, Sotagliflozin 30 mg/kg, Gefitinib 100 mg per kilogram): 430.3
inhibitory effect on tumor volume / tumor growth ([1]; tumor-bearing mice): can inhibit tumor growth; also recorded: good inhibitory effect on tumor volume
IC50 ([7]; single agent alone, cell survival rate after 1 h of incubation, read-out: IC50 value on A549 cells): 73 µM
IC50 ([2]; Sotagliflozin alone, cell survival rate after 2 h of incubation, read-out: IC50 value on HepG2 cells): 116 µM
concentration at which mainly cell growth inhibition effect is exhibited [11]: lower than 8 μM
concentration producing great cytotoxicity [11]: higher than 80 μM

Compound: COc1cc2nccc(Oc3ccc(NC(=O)NC4CC4)c(Cl)c3)c2cc1C(N)=O [Lenvatinib]
effect of addition of Sotagliflozin on inhibitory effect of Lenvatinib [13]: enhanced the inhibitory effect
